Reference: patent publication US20060025484A1 (priority 2003, published 2006)
Several values for one entry are separate records, joined by “and”; a condition that tells them apart may be missing. Identical values can stand only once.

Legend:
Carcinogenicity = assay type: in vivo; details: in comparison with BCNU
Excerpt: (§1) It is assumed that this is attributable to the fact that when HECNU is used, there cannot be any carbamoyl reactions in the body because no carbamoylating metabolite is formed in its degradation in the body.

[1] = system: tumors of the head and neck; experiment: In-vitro experiments on tumors of the head and neck; assay type: cell-based
gastric carcinomas = details: phase II; cited from earlier work
glutathione reductase = molecular target: T1, glutathione reductase (Homo sapiens, UniProt P00390); experiment: Inhibition of glutathione reductase in the lungs; assay type: biochemical
T1 construct: from tissue; host or cells: lungs
T1 sequence (P00390 44-522): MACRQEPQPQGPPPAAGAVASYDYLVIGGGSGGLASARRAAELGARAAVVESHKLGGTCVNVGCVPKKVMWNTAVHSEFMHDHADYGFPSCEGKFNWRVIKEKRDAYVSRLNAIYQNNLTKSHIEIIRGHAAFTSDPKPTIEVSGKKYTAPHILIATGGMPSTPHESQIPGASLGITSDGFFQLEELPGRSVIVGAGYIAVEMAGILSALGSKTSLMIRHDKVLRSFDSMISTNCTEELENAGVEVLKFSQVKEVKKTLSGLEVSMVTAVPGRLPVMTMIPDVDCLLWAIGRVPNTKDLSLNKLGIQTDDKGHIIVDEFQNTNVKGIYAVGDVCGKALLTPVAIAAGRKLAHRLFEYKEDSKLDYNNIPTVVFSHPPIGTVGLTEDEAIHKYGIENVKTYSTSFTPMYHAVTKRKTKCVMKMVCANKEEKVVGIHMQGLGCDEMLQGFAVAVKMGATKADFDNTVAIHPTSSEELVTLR
Excerpt: as §1

colorectal carcinoma = details: phase II; cited from earlier work
[2] = system: malignant supratentorial gliomas; details: cited from earlier work
pancreatic carcinoma = experiment: Clinical phase II study in patients with pancreatic cancer; assay type: in vivo, human; parameters: key to Effect: partial remission (PR); minor response (MR)
Excerpt: • Pancreatic carcinoma • Clinical study: • Phase II: ¼ partial remission (PR) (44 weeks)
+1 minor response (MR) (23 weeks)
A minor response was obtained in another patient.

[3] = Gastrointestinal toxicity in patients; assay type: in vivo, human; details: nausea and vomiting in patients
malignant brain tumors = details: phase II; cited from earlier work
[4] = system: human tumor xenograft models; experiment: Subcutaneously implanted human tumor xenograft models in the naked mouse; assay type: in vivo; details: s.c. human xenografts: soft tissue sarcomas, testicular tumors, thymomas, melanomas, mammary carcinomas, lung tumors, Wilms' tumors, renal carcinomas
Excerpt: Furthermore, the activity of HECNU has also been investigated in a number of subcutaneously implanted human tumor xenograft models in the naked mouse. […] These included soft tissue sarcomas, testicular tumors, thymomas, melanomas, mammary carcinomas, tumors of the lung, Wilms' tumors and renal carcinomas.

Water solubility = assay type: physicochemical
Excerpt: (§2) It is known that bis-(2-chloroethyl)-1-nitrosourea (hereinafter also referred to as BCNU) can be used in the treatment of various types of cancer. BCNU is lipophilic but it has a low solubility in water, so that additional solvents such as ethanol must be used in application. […] There has therefore been a search for alternatives to BCNU.

pancreas lines = experiment: In-vitro experiments with various pancreas lines; assay type: cell-based
Experimental: Inhibiting effects in the low μg/mL range were also found in in-vitro experiments conducted with various pancreas lines, an inhibiting effect normally being achieved with an HECNU concentration of less than 10 μg/mL.

[5] = Organ toxicity (bone marrow, lungs, kidney); assay type: in vivo; details: in comparison with BCNU
Excerpt: as §2, §1

[6] = single patient with pancreas tumor, dose 100 mg/m^2

For `O=NN(CCCl)C(=O)NCCO` [HECNU, 1-(2-chloroethyl)-1-nitroso-3-(2-hydroxyethyl)urea], the Carcinogenicity (Carcinogenicity) is listed as “much weaker carcinogen than BCNU”, the “Inhibiting effect in vitro” value [1] is listed as “an inhibiting effect was also achieved” and the “Partial remission, patients treated” value (gastric carcinomas) is listed as 31%. The “Inhibition of glutathione reductase” value (glutathione reductase) was “does not inhibit glutathione reductase”, the “Activity and response rate” value (colorectal carcinoma) was “only marginal activities and response rates” and the Toxicity profile ([2]; compared with other nitrosoureas) was “more favorable toxicity profile in comparison with other nitrosoureas”. For the same molecule, the Activity ([2]; phase II, malignant supratentorial gliomas) was “demonstrated its activity”, the “Partial remission, share of treated patients” value (pancreatic carcinoma; four treated patients with pancreatic cancer) was “¼” and the Effect (pancreatic carcinoma; [6]) was “PR and MR”. For the same molecule, the “Time to P (weeks)” value (pancreatic carcinoma; [6]) was 44 weeks and 23 weeks, the Gastrointestinal toxicity [3] was “only a low gastrointestinal toxicity” and the Antineoplastic activity (malignant brain tumors) was “significant antineoplastic activity”. The “Inhibiting effect on tumor growth” value [4] was “good to very good inhibiting effects on tumor growth”, the Water solubility (Water solubility) was “good water solubility” and the “HECNU concentration achieving an inhibiting effect” value (pancreas lines) was “less than 10 μg/mL”. The “Bone marrow, pulmonary and renal toxicity” value [5] was “greatly reduced bone marrow toxicity, pulmonary toxicity and renal toxicity”.
